“Also recorded” adds a separate entry of the source. Where no end group is shown, it is not given here.
Tests used:
BHK-21 cells = assay: Cell proliferation assay, Epi-1 alone on BHK-21 cells; assay type: cell-based, baby hamster; conditions: Epi up to 1 μg/ml, 48 h, n=3
From the text: Baby hamster kidney (BHK)-21 cells were purchased and maintained as per American Type Culture Collection (ATCC no. CCL10, Manassas, Va., USA) instructions. Female C3H/HeN mice, purchased from the National Laboratory Animal Breeding and Research Center (Taiwan) and BioLASCO (Taipei, Taiwan), were housed at the Laboratory Animal Facility, National Taiwan Ocean University NTOU; Keelung, Taiwan). Mice were maintained in pathogen-free sterile isolators according to institutional guidelines, and all food, water, caging, and bedding were sterilized before use. All procedures were approved by the Animal Care and Use Committee of NTOU. The 50% lethal dose (LD50) of JEV in female C3H/HeN mice was determined. The Beijing-1 JEV strain was maintained in suckling mouse brains as previously described.
BHK-21 cells in 48-well plates were assayed with CellTiter 96 Aqueous One Solution (Promega, Madison, Wis., USA) following the vendor's instructions. Epi-1 was administered together with Japanese encephalitis virus (JEV) as co-treatment; Epi-1 was administered 24 h prior to (prophylaxis) or after (curative) the JEV inoculation. After blank value subtraction, the percentage survival against control cells was calculated. […]
The effects of Epi-1 on JEV in BHK-21 cells were studied. […] At 48 h, cell viability of JEV infection was determined (FIG. 1a). […]

[1] = Toxicity of Epi-1 alone injected i.p. in adult mice
Experimental: Six-week-old adult C3H/HeN mice were randomly divided into five groups of 10 mice each. […] After 14 days, a re-challenge was carried out on surviving mice with 50× the LD50 of JEV. Mouse survival and activity were monitored on a daily basis for up to 25 days after the primary injection. For serological studies, serum was collected on days 4, 7, and 21 after treatment. A similar approach was followed to test immunized mice.
JEV was co-injected with or without Epi-1 at various dosages (50, 100, and 200 μg/ml) into adult mice and subsequently boosted (a second JEV challenge without Epi-1) on day 14. The survival rate of mice was recorded for 25 days.

Sequence: GFIFHIIKGLFHAGKMIHGLV [Epi-1, epinecidin-1]
- cell viability (BHK-21 cells): did not affect cell viability; also recorded: no detectable cytotoxicity
- survival and behaviour ([1]; 200 μg/ml Epi-1 alone i.p., n=10): all mice survived and behaved normally
- toxic effects ([1]; Epi-1 alone, adult mice): No toxic effects were noted; also recorded: no detectable cytotoxicity

Reference: patent US8361483B2, “Epinecidin-1 as a vaccine adjuvant for enhancing immune responses” (priority 2011, dated 2013)
